Data from US6737383B1, “Herbicidal oxadiazolidines” (priority 1999, dated 2004).

How the values were obtained:
[1] = tested on: bedstraw; assay: Test B pre/postemergence bedstraw; assay type: in vivo, Galium aparine
Procedure, shortened: (§1)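 Herbicidal effect was estimated by eye on a ten-point control scale after plants spent twelve to sixteen days in a greenhouse following soil or foliar treatment. Foliar sprays targeted plants at one to four leaves; all doses were formulated in a non-phytotoxic solvent with surfactant.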

[2] = tested on: blackgrass; assay: Test B pre/postemergence blackgrass; assay type: in vivo, Alopecurus myosuroides
Procedure, shortened: as §1

[3] = tested on: surinam grass; assay: Test B pre/postemergence surinam grass; assay type: in vivo, Brachiaria decumbens
Procedure, shortened: as §1

[4] = tested on: cocklebur; assay: Test B pre/postemergence cocklebur; assay type: in vivo, Xanthium strumarium
Procedure, shortened: as §1

[5] = tested on: corn; assay: Test B pre/postemergence corn; assay type: in vivo, Zea mays
Procedure, shortened: as §1

[6] = tested on: crabgrass; assay: Test B pre/postemergence crabgrass; assay type: in vivo, Digitaria sanguinalis
Procedure, shortened: as §1

[7] = tested on: giant foxtail; assay: Test B pre/postemergence giant foxtail; assay type: in vivo, Setaria faberii
Procedure, shortened: as §1

[8] = tested on: morningglory; assay: Test B pre/postemergence morningglory; assay type: in vivo, Ipomoea hederacea
Procedure, shortened: as §1

[9] = tested on: pigweed; assay: Test B pre/postemergence pigweed; assay type: in vivo, Amaranthus retroflexus
Procedure, shortened: as §1

[10] = tested on: rape; assay: Test B pre/postemergence rape; assay type: in vivo, Brassica napus
Procedure, shortened: as §1

[11] = tested on: soybean; assay: Test B pre/postemergence soybean; assay type: in vivo, Glycine max
Procedure, shortened: as §1

[12] = tested on: sugar beet; assay: Test B pre/postemergence sugar beet; assay type: in vivo, Beta vulgaris
Procedure, shortened: as §1

[13] = tested on: velvetleaf; assay: Test B pre/postemergence velvetleaf; assay type: in vivo, Abutilon theophrasti
Procedure, shortened: as §1

[14] = tested on: wheat; assay: Test B pre/postemergence wheat; assay type: in vivo, Triticum aestivum
Procedure, shortened: as §1

[15] = tested on: wild oat; assay: Test B pre/postemergence wild oat; assay type: in vivo, Avena fatua
Procedure, shortened: as §1

[16] = tested on: purple nutsedge; assay: Test B pre/postemergence purple nutsedge; assay type: in vivo, Cyperus rotundus
Procedure, shortened: as §1

[17] = tested on: rice; assay: Test B flood test rice; assay type: in vivo, Oryza sativa
Procedure, shortened: (§2)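 Read-out is a visual response score from 0 (no effect) to 10 (complete control), assigned by comparison with untreated controls. Treatment was applied at the 2-leaf stage, and plants stayed in the greenhouse for twelve to sixteen days before scoring.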

[18] = tested on: smallflower flatsedge; assay: Test B flood test smallflower flatsedge; assay type: in vivo, Cyperus difformis
Procedure, shortened: as §2

[19] = tested on: duck salad; assay: Test B flood test duck salad; assay type: in vivo, Heteranthera limosa
Procedure, shortened: as §2

[20] = tested on: bamyardgrass; assay: Test B flood test barnyardgrass; assay type: in vivo, Echinochloa crus-galli
Procedure, shortened: as §2

[21] = Preemergence, Rate 62 g/ha, scale of 0 to 10 where 0 is no effect and 10 is complete control
[22] = Preemergence, Rate 250 g/ha, scale of 0 to 10 where 0 is no effect and 10 is complete control
[23] = Preemergence, Rate 500 g/ha, scale of 0 to 10 where 0 is no effect and 10 is complete control
[24] = Rate 62 g/ha, Postemergence, scale of 0 to 10 where 0 is no effect and 10 is complete control
[25] = Rate 125 g/ha, Postemergence, scale 0 to 10
[26] = Rate 125 g/ha, Preemergence, scale of 0 to 10 where 0 is no effect and 10 is complete control
[27] = Rate 500 g/ha, Postemergence, scale 0 to 10, 0 no effect, 10 complete control
[28] = Rate 62 g/ha, headed Pre-emergence (flood test species), scale 0 to 10 (0 no effect, 10 complete control)
[29] = Rate 125 g/ha, Pre-emergence, flood test species, scale 0 to 10 where 0 is no effect and 10 is complete control
[30] = Rate 250 g/ha, Pre-emergence, flood-test species, scale 0 to 10, 0 is no effect, 10 is complete control
[31] = Rate 500 g/ha, Pre-emergence, flood test species, scale 0 to 10 (0 no effect, 10 complete control)

CCCCCCCCCCCCCCCCCCCn1c(=O)on(C(=O)N(c2ccc(F)cc2)C(C)C)c1=O [Compound 253]
0: Bedstraw plant response rating [1, 21] | Bedstraw plant response rating [1, 22] | Plant response rating, Bedstraw [1, 23] | Bedstraw plant response rating [1, 24] | Bedstraw plant response rating [1, 25] | Bedstraw plant response rating [1, 26] | Plant response rating (0 to 10; 0 is no effect, 10 is complete control), Bedstraw ([1]; Rate 250 g/ha, Postemergence) | Bedstraw plant response rating [1, 27] | Blackgrass plant response rating [2, 21] | Blackgrass plant response rating [2, 22] | Plant response rating, Blackgrass [2, 23] | Blackgrass plant response rating [2, 24] | Blackgrass plant response rating [2, 25] | Blackgrass plant response rating [2, 26] | Plant response rating (0 to 10; 0 is no effect, 10 is complete control), Blackgrass ([2]; Rate 250 g/ha, Postemergence) | Blackgrass plant response rating [2, 27] | B. signalgrass plant response rating [3, 21] | B. signalgrass plant response rating [3, 22] | Plant response rating, B. signalgrass [3, 23] | B. signalgrass plant response rating [3, 24] | B. signalgrass plant response rating ([3]; Rate 125 g/ha, Postemergence, scale 0 (no effect) to 10 (complete control)) | B. signalgrass plant response rating [3, 26] | Plant response rating (0 to 10; 0 is no effect, 10 is complete control), B. signalgrass ([3]; Rate 250 g/ha, Postemergence) | B. signalgrass plant response rating [3, 27] | Cocklebur plant response rating [4, 21] | Cocklebur plant response rating [4, 22] | Plant response rating, Cocklebur [4, 23] | Cocklebur plant response rating [4, 24] | Cocklebur plant response rating [4, 25] | Cocklebur plant response rating [4, 26] | Plant response rating (0 to 10; 0 is no effect, 10 is complete control), Cocklebur ([4]; Rate 250 g/ha, Postemergence) | Cocklebur plant response rating [4, 27] | Corn plant response rating [5, 21] | Corn plant response rating [5, 22] | Plant response rating, Corn [5, 23] | Corn plant response rating [5, 24] | Corn plant response rating [5, 25] | Corn plant response rating [5, 26] | Plant response rating (0 to 10; 0 is no effect, 10 is complete control), Corn ([5]; Rate 250 g/ha, Postemergence) | Corn plant response rating [5, 27] | Crabgrass plant response rating [6, 21] | Crabgrass plant response rating [6, 22] | Plant response rating, Crabgrass [6, 23] | Crabgrass plant response rating [6, 26] | Plant response rating (0 to 10; 0 is no effect, 10 is complete control), Crabgrass ([6]; Rate 250 g/ha, Postemergence) | Crabgrass plant response rating [6, 27] | Giant foxtail plant response rating [7, 21] | Giant foxtail plant response rating [7, 22] | Plant response rating, Giant foxtail [7, 23] | Giant foxtail plant response rating [7, 26] | Plant response rating (0 to 10; 0 is no effect, 10 is complete control), Giant foxtail ([7]; Rate 250 g/ha, Postemergence) | Giant foxtail plant response rating [7, 27] | Morningglory plant response rating [8, 21] | Morningglory plant response rating [8, 22] | Plant response rating, Morningglory [8, 23] | Morningglory plant response rating [8, 26] | Plant response rating (0 to 10; 0 is no effect, 10 is complete control), Morningglory ([8]; Rate 250 g/ha, Postemergence) | Morningglory plant response rating [8, 27] | Redroot pigweed plant response rating [9, 21] | Redroot pigweed plant response rating [9, 22] | Plant response rating, Redroot pigweed [9, 23] | Redroot pigweed plant response rating [9, 26] | Plant response rating (0 to 10; 0 is no effect, 10 is complete control), Redroot pigweed ([9]; Rate 250 g/ha, Postemergence) | Redroot pigweed plant response rating [9, 27] | Rape plant response rating [10, 21] | Rape plant response rating [10, 22] | Plant response rating, Rape [10, 23] | Rape plant response rating [10, 26] | Plant response rating (0 to 10; 0 is no effect, 10 is complete control), Rape ([10]; Rate 250 g/ha, Postemergence) | Rape plant response rating [10, 27] | Soybean plant response rating [11, 21] | Soybean plant response rating [11, 22] | Plant response rating, Soybean [11, 23] | Soybean plant response rating [11, 26] | Soybean plant response rating [11, 27] | Sugarbeets plant response rating [12, 21] | Sugarbeets plant response rating [12, 22] | Plant response rating, Sugarbeets [12, 23] | Sugarbeets plant response rating [12, 26] | Sugarbeets plant response rating [12, 27] | Velvetleaf plant response rating [13, 21] | Velvetleaf plant response rating [13, 22] | Plant response rating, Velvetleaf [13, 23] | Velvetleaf plant response rating [13, 26] | Velvetleaf plant response rating [13, 27] | Wheat plant response rating [14, 21] | Wheat plant response rating [14, 22] | Plant response rating, Wheat [14, 23] | Wheat plant response rating [14, 26] | Wheat plant response rating [14, 27] | Wild oats plant response rating [15, 21] | Wild oats plant response rating [15, 22] | Plant response rating, Wild oats [15, 23] | Wild oats plant response rating [15, 26] | Wild oats plant response rating [15, 27] | Plant response rating, Nutsedge [16, 23] | Plant response rating (0 to 10; 0 is no effect, 10 is complete control), Nutsedge ([16]; Rate 250 g/ha, Postemergence) | Nutsedge plant response rating [16, 27] | Rice plant response rating [17, 28] | Rice plant response rating [17, 29] | Rice plant response rating [17, 30] | Rice plant response rating [17, 31] | S. Flatsedge plant response rating [18, 28] | S. Flatsedge plant response rating [18, 29] | S. Flatsedge plant response rating [18, 30] | S. Flatsedge plant response rating [18, 31] | Ducksalad plant response rating [19, 28] | Ducksalad plant response rating [19, 29] | Ducksalad plant response rating [19, 30] | Ducksalad plant response rating [19, 31] | Barnyardgrass plant response rating [20, 28] | Barnyardgrass plant response rating [20, 29] | Barnyardgrass plant response rating [20, 30] | Barnyardgrass plant response rating [20, 31]
